This passage reports IC50 and activation results from US20250122192A1, “5-PYRIMIDINECARBOXAMIDE DERIVATIVES AND METHODS OF USING THE SAME” (Rgenta Therapeutics, Inc., priority 2021, published 2025).

Each structure is given as a SMILES string. Counter-ions that a name gives are not always drawn.

For the first experiment, the system named is PMS1. Put plainly: Mini-gene reporter assay-PMS1. The experiment is classed as cell-based. The following applies: Homo sapiens, HEK293, PMS1 mini-gene firefly luciferase reporter transiently transfected into HEK293 cells; read-out: PMS1 IC50. An excerpt: Biological Activity of the Compounds of the Present Disclosure Mini-gene reporter assay-PMS1
Mini-gene reporter constructs for each target site can be constructed by first PCR amplifying the region-of-interest including the sequence of the alternatively skipped, sequences of the immediate upstream and downstream introns, and sequences of the immediate upstream and downstream exons. Then the 3′end of the amplified sequence can be ligated to a firefly luciferase reporter gene and cloned into the pcDNA3.1 vector backbone. The final reporter construct can be transiently transfected into HEK293 cells using Lipofectamine 3000 transfection reagents. Compounds that can induce the inclusion of the skipped exon in the reporter construct would increase the reporter firefly luciferase activity.
Test compounds may be diluted in duplicates and dispensed into an assay plate. Transient mini-gene reporter cell line stock is resuspended and dispensed into the assay plate. Assay plates are then centrifuged and incubated. A luciferase reagent (e.g. ONE-Glo firefly luciferase reagent from Promega®) may be added to the assay plate and the luminescence (RLU) signals recorded. PMS1 EC50 values may be determined by curve fitting in Levenberg-Marquardt algorithm.
In the case of `CCOc1nc(N2CCNC(C)(C)C2)ncc1C(=O)Nc1cc(F)c2nn(C)cc2c1` [Compound 265, 2-(3,3-dimethylpiperazin-1-yl)-4-ethoxy-N-(7-fluoro-2-methyl-2H-indazol-5-yl)pyrimidine-5-carboxamide], the IC50 (usually the concentration needed to halve the response being measured) is greater than 3 µM. As to `CCOc1nc(N2CCC3(CCCN3)CC2)ncc1C(=O)Nc1cn2cc(C)nc2c(C)n1` [Compound 54], the IC50 is less than 0.5 µM. Turning to `CCOc1nc(N2CCC3(CCNC3)CC2)ncc1C(=O)Nc1cn2cc(C)nc2c(C)n1` [Compound 89], the IC50 was greater than 3 µM.

As for `CCOc1nc(N2CCCC(C3CCNC3)C2)ncc1C(=O)Nc1cc(F)c2nc(C)cn2c1` (centres unmarked) [Compound 108], the IC50 was 0.5 to 1 µM. In the case of `CCOc1nc(N(C)C2CCNCC2)ncc1C(=O)Nc1cc(F)c2nn(C)cc2c1` [Compound 275, 4-ethoxy-N-(7-fluoro-2-methyl-2H-indazol-5-yl)-2-(methyl(piperidin-4-yl)amino) pyrimidine-5-carboxamide formate], the IC50 was less than 0.5 µM. Consider `CCOc1nc(N2CC(C3CNC3)C2)ncc1C(=O)Nc1cn2cc(C)nc2c(C)n1` [Compound 52], for which the IC50 is greater than 3 µM. Take `CCOc1nc(N2CC(C)OC3(CCNC3)C2)ncc1C(=O)Nc1cc(F)c2nc(C)cn2c1` (centres unmarked) [Compound 149]: the IC50 was greater than 3 µM.

Regarding `CCOc1nc(N2CC3CNCC3C2)ncc1C(=O)Nc1cc(F)c2nc(C)oc2c1` (centres unmarked) [Compound 14, 4-ethoxy-N-(4-fluoro-2-methyl-1,3-benzoxazol-6-yl)-2-{octahydropyrrolo[3,4-c]pyrrol-2-yl}pyrimidine-5-carboxamide], the IC50 is less than 0.5 µM. Turning to `CCOc1nc(N(C)C2CCNCC2)ncc1C(=O)Nc1cn2cc(C)nc2cn1` [Compound 256, 4-ethoxy-2-(methyl(piperidin-4-yl)amino)-N-(2-methylimidazo[1,2-a]pyrazin-6-yl)pyrimidine-5-carboxamide], the IC50 is less than 0.5 µM.

With `CCOc1nc(N(C)[C@@H]2C[C@H]3CC[C@@H](C2)N3)ncc1C(=O)Nc1cn2cc(C)nc2c(C)n1` [Compound 56], the IC50 was in the range of 0.5 to 1 µM.

Turning to `CCNC1COC2(C1)CN(c1ncc(C(=O)Nc3cn4cc(C)nc4c(C)n3)c(OCC)n1)C2` (centres unmarked) [Compound 45], the IC50 is greater than 3 µM.

`CCOc1nc(N2CCC(NCC3CC3)CC2)ncc1C(=O)Nc1cn2cc(C)nc2c(C)n1` [Compound 74]: the IC50 was greater than 3 µM. As to `CCOc1nc(N2CC[C@H](NC)C2)ncc1C(=O)Nc1ccc2nc(C)cn2n1` [Compound 318], the IC50 was greater than 3 µM. On to `CCOc1nc(N(C)C2CCCCNC2)ncc1C(=O)Nc1cc(F)c2nc(C)cn2c1` (centres unmarked) [Compound 138], for which the IC50 was in the range of 1 to 3 µM. Take `CCOc1nc(N2CCC3(CCNC3)C2)ncc1C(=O)Nc1cc(F)c2nc(C)cn2c1` (centres unmarked) [Compound 234]: the IC50 is less than 0.5 µM. Consider `CCOc1nc(N2CCNCC2)ncc1C(=O)Nc1cc(F)c2nn(C)cc2c1` [Compound 26, 4-ethoxy-N-(7-fluoro-2-methyl-2H-indazol-5-yl)-2-(piperazin-1-yl)pyrimidine-5-carboxamide], for which the IC50 is 0.5 to 1 µM.

On to `CCOc1nc(N2CCOC3(CNC3)C2)ncc1C(=O)Nc1cc(F)c2nc(C)cn2c1` [Compound 144], for which the IC50 was greater than 3 µM.

Take `CCOc1nc(N2CC[C@@H](N(C)C)C2)ncc1C(=O)Nc1cc(F)c2nc(C)cn2c1` [Compound 290, (R)-2-(3-(dimethylamino)pyrrolidin-1-yl)-4-ethoxy-N-(8-fluoro-2-methylimidazo[1,2-a]pyridin-6-yl)pyrimidine-5-carboxamide 4-methylbenzenesulfonate]: the IC50 fell in the range of 1 to 3 µM. Turning to `CCOc1nc(N2CCNC(C)C2)ncc1C(=O)Nc1cc(F)c2nc(C)cn2c1` (centres unmarked) [Compound 243], the IC50 was less than 0.5 µM.

For the compound `CCOc1nc(N2CC3CCC2CN3)ncc1C(=O)Nc1cn2cc(C)nc2c(C)n1` (centres unmarked) [Compound 53], the IC50 lay in the range of 0.5 to 1 µM.

For `CCOc1nc(N2CC3=C(CNC3)C2)ncc1C(=O)Nc1cc(F)c2nc(C)cn2c1` [Compound 114], the 50% inhibitory concentration (IC50) is less than 0.5 µM. In the case of `CCOc1nc(N2CC3(CCNCC3)C2)ncc1C(=O)Nc1cc(F)c2nc(C)cn2c1` [Compound 239], the IC50 was less than 0.5 µM.

Take `CCOc1nc(N2CCNCC2)ncc1C(=O)Nc1cc(F)c2nc(C)oc2c1` [Compound 12, 4-ethoxy-N-(4-fluoro-2-methyl-1,3-benzoxazol-6-yl)-2-(piperazin-1-yl)pyrimidine-5-carboxamide]: the IC50 fell in the range of 1 to 3 µM. With `CCOc1nc(N2CCN[C@H]3CC[C@H]32)ncc1C(=O)Nc1cn2cc(C)nc2c(C)n1` (racemic) [Compound 101], the IC50 was in the range of 0.5 to 1 µM.

Regarding `CCOc1nc(N2CC(NC)C2)ncc1C(=O)Nc1ccc2nn(C)cc2c1` [Compound 255, 4-ethoxy-N-(2-methyl-2H-indazol-5-yl)-2-(3-(methylamino)azetidin-1-yl)pyrimidine-5-carboxamide], the IC50 was greater than 3 µM. Still for that read-out and setting: in the case of `CCOc1nc(N2CCCC3CNCCC32)ncc1C(=O)Nc1cn2cc(C)nc2c(C)n1` (centres unmarked) [Compound 49] it was less than 0.5 µM; in that of `CCOc1nc(N2C[C@@H](C)N[C@@H](C)C2)ncc1C(=O)Nc1cc(F)c2nn(C)cc2c1` [Compound 280, 2-((3R,5S)-3,5-dimethylpiperazin-1-yl)-4-ethoxy-N-(7-fluoro-2-methyl-2H-indazol-5-yl)pyrimidine-5-carboxamide 4-methylbenzenesulfonate], 1 to 3 µM; in that of `CCOc1nc(N2CCC(C3CNC3)CC2)ncc1C(=O)Nc1cc(F)c2nc(C)cn2c1` [Compound 142], 1 to 3 µM. On the same count and under the same terms, in the case of `CCOc1nc(N2CC[C@@H]3CNC[C@@H]3CC2)ncc1C(=O)Nc1cc(F)c2nc(C)cn2c1` [Compound 181] it was 1 to 3 µM; in that of `CCOc1nc(N2CCC3(CC2)COCCN3)ncc1C(=O)Nc1cn2cc(C)nc2c(C)n1` [Compound 94], greater than 3 µM; in that of `CCOc1nc(N2CCCC(C3CCCNC3)C2)ncc1C(=O)Nc1cc(F)c2nc(C)cn2c1` (centres unmarked) [Compound 184], 0.5 to 1 µM. For the compound `CCOc1nc(N2CCNCC(C)(C)C2)ncc1C(=O)Nc1cc(F)c2nc(C)cn2c1` [Compound 118], the IC50 fell in the range of 1 to 3 µM. As for `CCNC1CCN(c2ncc(C(=O)Nc3cc(F)c4nc(C)cn4c3)c(OCC)n2)C1` (centres unmarked) [Compound 154], the IC50 was less than 0.5 µM.

As for `CCOc1nc(N2CCC3(CCNCC3)C2)ncc1C(=O)Nc1cn2cc(C)nc2c(C)n1` [Compound 88], the IC50 is less than 0.5 µM. As to `CCOc1nc(N(C)CC2CCNCC2)ncc1C(=O)Nc1cc(F)c2nc(C)cn2c1` [Compound 237], the IC50 is greater than 3 µM.

Take `CCOc1nc(N2CCN(CC)CC2)ncc1C(=O)Nc1cc(F)c2nn(C)cc2c1` [Compound 252, 4-ethoxy-2-(4-ethylpiperazin-1-yl)-N-(7-fluoro-2-methyl-2H-indazol-5-yl)pyrimidine-5-carboxamide hydrochloride]: the IC50 was greater than 3 µM. The same measure, in the same setting: the result for `CC(C)COc1nc(N2CCNCC2)ncc1C(=O)Nc1cc(F)c2nn(C)cc2c1` [Compound 306, N-(7-fluoro-2-methyl-2H-indazol-5-yl)-4-isobutoxy-2-(piperazin-1-yl)pyrimidine-5-carboxamide formate] reads 1 to 3 µM. As to `CCOc1nc(N2CC(N3CCNCC3)C2)ncc1C(=O)Nc1cc(F)c2nc(C)cn2c1` [Compound 218], the IC50 was greater than 3 µM. Take `CCOc1nc(N2CC[C@@H]3NCC[C@@H]3C2)ncc1C(=O)Nc1cn2cc(C)nc2c(C)n1` (racemic) [Compound 90]: the IC50 fell in the range of 1 to 3 µM. On to `CCOc1nc(N2CCN(C)CC2)ncc1C(=O)Nc1cc(F)c2nc(C)cn2c1` [Compound 6, 4-ethoxy-N-{8-fluoro-2-methylimidazo[1,2-a]pyridin-6-yl}-2-(4-methylpiperazin-1-yl)pyrimidine-5-carboxamide], for which the IC50 was 1 to 3 µM.

Take `CCOc1nc(N2CCNC(CF)C2)ncc1C(=O)Nc1cc(F)c2nc(C)cn2c1` (centres unmarked) [Compound 111]: the IC50 was greater than 3 µM. With `CCNC1CN(c2ncc(C(=O)Nc3cc(F)c4nc(C)cn4c3)c(OCC)n2)C1` [Compound 202], the IC50 fell in the range of 0.5 to 1 µM. For the compound `CCOc1nc(N2CC[C@@H]3NCC[C@@H]3C2)ncc1C(=O)Nc1cc(F)c2nc(C)cn2c1` (racemic) [Compound 199], the IC50 was less than 0.5 µM. On to `CCOc1nc(N2CCN[C@H](C)C2)ncc1C(=O)Nc1cc(F)c2nn(C)cc2c1` [Compound 264, (R)-4-ethoxy-N-(7-fluoro-2-methyl-2H-indazol-5-yl)-2-(3-methylpiperazin-1-yl)pyrimidine-5-carboxamide formic acid], for which the IC50 is 1 to 3 µM. `CCOc1nc(N2CC3(CCNCC3)[C@H]3COC[C@H]32)ncc1C(=O)Nc1cc(F)c2nc(C)cn2c1` (racemic) [Compound 124]: the IC50 was greater than 3 µM. On to `CCOc1nc(N2CCNCC2C(F)F)ncc1C(=O)Nc1cc(F)c2nc(C)cn2c1` (centres unmarked) [Compound 112], for which the IC50 was 1 to 3 µM. Same read-out and setting: the result for `CCOc1nc(N2C[C@H]3CNC[C@H]3C2)ncc1C(=O)Nc1cn2cc(C)nc2c(C)n1` [Compound 84] reads less than 0.5 µM.

As for `CCOc1nc(N2CC3CNCCC32)ncc1C(=O)Nc1cc(F)c2nc(C)cn2c1` (centres unmarked) [Compound 136], the IC50 is less than 0.5 µM. Turning to `CCOc1nc(N2CCC(CNC)CC2)ncc1C(=O)Nc1cc(F)c2nc(C)cn2c1` [Compound 216], the IC50 was less than 0.5 µM.

The same experiment, now with this note: Homo sapiens; at 5 μM; PMS1 mini-gene firefly luciferase reporter in HEK293 cells; read-out: PMS1% Effect at 5 μM.
On to `CCOc1nc(N2CC[C@H](NC)C2)ncc1C(=O)Nc1ccn2nc(C)cc2c1` [Compound 314, 4-ethoxy-2-[(3S)-3-(methylamino)pyrrolidin-1-yl]-N-2-methylpyrazolo[1,5-a]-pyridin-5-ylpyrimidine-5-carboxamide], for which the activation at 5 µM is greater than 75%.
